{
  "source": "patent US20020065419A1",
  "about": "“Cyclobutenedione compounds” (priority 2000, published 2002)",
  "key": {"[1]": {"system": "aortic rings of New Zealand rabbits", "assay": "Protective vascular effects with respect to endothelial dysfunction caused by a system generating O2- (XO-Hypo), aortic rings", "conditions": "compound at 10^-7 M; XO 3 mU/ml, Hypo 10^-4 M; rabbit aortic rings"}, "rat aortic rings": {"system": "rat aortic rings", "assay": "Aortic production of cGMP stimulated by ACh in the presence of LNA", "conditions": "compound at 3x10 -M (so in the source), 30-minute incubation, ACh 10^-5 M 1 minute, LNA 3x10^-6 M", "protocol": "By diffusing to the smooth muscle cells, the NO produced by the endothelial cells activates soluble guanylate cyclase, which brings about an increase in cyclic GMP, which is responsible for relaxation.\nThe rat aortic rings are prepared as previously. The effects of 30-minute incubation of compounds of the invention at different concentrations are assessed on the production of cGMP stimulated by ACh (10^−5 M—1 minute) in the presence of LNA (3×10^−6 M). The said experiments are carried out in the presence of isobutylmethylxanthine (10^−5 M) in order to avoid degradation of the cGMP by phosphodiesterases. The rings are frozen in liquid nitrogen and maintained at −80° C. until the assay is carried out. The cGMP content is assessed by radioimmunoassay and expressed in relation to the amount of proteins contained in the tissue (assay by the Bradford method)."}, "[2]": {"system": "thoracic aorta rings of Wistar rat", "assay": "Vascular protective effects with respect to endothelial dysfunction caused by an inhibitor of NOS (LNA), aortic rings", "conditions": "compound at 10^-7 M, LNA 3x10^-7 M, relaxation due to ACh", "from_the_text": "Under standard in vitro conditions, relaxation of aortic rings caused by acetylcholine (ACh), which relaxation is entirely dependent on the presence of endothelium, reflects the production of NO (stimulated by ACh), which, by diffusing to smooth muscle cells, brings about arterial relaxation (Nature, 1980, 288, 373).\nthe first model consists of causing inhibition of the relaxation due to ACh by blocking the enzymatic activity (endothelial NOS) responsible for the production of NO;\nThe thoracic aorta of a Wistar rat (325-375 g), anaesthetised by the intraperitoneal route using pentobarbital sodium (30 mg/kg), is removed and dissected into rings having a length of 3 mm. Each ring is suspended from an isometric tension sensor connected to a recording system and the initial tension applied is 2.5 g. […]\nAfter a 90-minute stabilisation period, the preparations are contracted using phenylephrine (PHE 10^−6 M) and relaxed by adding 10^−5 M of acetylcholine in order to verify the integrity of the endothelial layer. […] The preparations are again contracted using phenylephrine and, after 30 minutes, the relaxations due to acetylcholine (ACh-10^−8 M to 10^−5 M) are assessed in the presence of indomethacin (10^−5 M).\nThe relaxation values are expressed as a percentage relative to the maximum contraction caused by PHE. […]"}},
  "data": [
    {"smiles": "O=c1c(NCCN2CCC(COc3ccccc3)CC2)c(N2CCc3ccccc32)c1=O", "note": "[Example 5, 3-(2,3-Dihydro-1H-indol-1-yl)-4-({2-[4-(Phenoxymethyl)-1-piperidinyl]-ethyl}amino)-3-cyclobutene-1,2-dione and its methanesulphonate]", "values": [
      {"measurement": "inhibition of the endothelial dysfunction caused by the XO-Hypo combination", "setting": "[1]", "result": 17, "unit": "%"},
      {"measurement": "increase of the production of cGMP stimulated by ACh in the presence of LNA", "setting": "rat aortic rings", "result": 39, "unit": "%"},
      {"measurement": "inhibition of the endothelial dysfunction caused by LNA", "setting": "[2]", "result": 27, "unit": "%"}
    ]}
  ]
}
